Test results taken from patent US20220218725A1, “METHODS AND MATERIALS FOR TREATING CANCER” (Mayo Foundation for Medical Education and Research, priority 2019, published 2022).

Legend:
[1] = test system: CMML patient-derived bone marrow sample; test: Hematopoietic progenitor colony forming assay; format: cell-based, human; settings: assessed by counting colony forming units in methyl cellulose media, KPT-330 0.05-0.5 μM, CS 1-3 mM
Excerpt: CMML patient-derived bone marrow samples were first treated with ammonium chloride to deplete red blood cells, washed in RPMI, then plated at a final concentration of 5×10^4-2×10^5 cells/mL in addition to drug(s). This solution was immediately inoculated into methylcellulose (StemCell) formulated with recombinant cytokines to support the optimal growth of erythroid progenitor cells, granulocyte-macrophage progenitor cells, and multipotent granulocyte, erythroid, macrophage and megakaryocyte progenitor cells. Plates were incubated with respective treatment conditions at 37° C. and colonies were enumerated on day 10-14.

OCI-Ly3 cells = test: Cell viability, Annexin V/PI assay; format: cell-based; settings: OCI-Ly3 (DLBCL); 48 hours; KPT-330 0.1-1.0 μM, CS 1-3 mM, single agent or combination
Experimental: DMSO was used to substitute the drug in controls.
Apoptosis results were analyzed with BD CellQuest software.
Cell lines were cultured according to instruction.

L3.6 cells = test: Cell viability, Annexin V/PI assay; format: cell-based; settings: L3.6 (Pancreatic cancer); 48 hours; KPT-330 0.1-1.0 μM, CS 1-3 mM, single agent or combination
Experimental: KPT-330 purchased from Selleckchem (cat no: S7252) was dissolved in DMSO while CS (Santa Cruz, Calif.S 2016-36-6), sodium salicylate (Sigma-Aldrich, cat no: S3007), acetyl salicylate (Sigma-Aldrich, cat no: CAS 50-78-2) was diluted in PBS. […] The concentration range of KPT-330 was 0.05-1.0 μM while CS was 1-3 mM were used for ex vivo treatment and incubation time ranged from 24 hours to 72 hours.

Karpas-299 cells = test: Cell viability, Annexin V/PI assay; format: cell-based; settings: Karpas-299 (TCL); 48 hours; KPT-330 0.1-1.0 μM, CS 1-3 mM, single agent or combination
Experimental: (§1) Cell lines were purchased from the cell line repositories ATCC (Manassas, Va.) or DSMZ (Braunschweig, Germany). These included MCL cell lines: JeKo-1, Mino; TCL cell lines: Karpas-299, SR-786; DLBCL cell lines: OCI-Ly1 (LY-1), OCI-Ly3 (LY-3), OCI-Ly19 (LY-19), SU-DHL-6 (DHL-6); MM cell lines: RPMI, U266, OPM2, Xgl, KMS2; ALL cell lines: CRL-1783; non-small cell lung cancer: NCI-H460, A549, HCC827; small cell lung cancer: H1048; sarcoma: Fuji, SW872. Cell lines were cultured according to instruction.
(§2) KPT-330 purchased from Selleckchem (cat no: S7252) was dissolved in DMSO while CS (Santa Cruz, Calif.S 2016-36-6), sodium salicylate (Sigma-Aldrich, cat no: S3007), acetyl salicylate (Sigma-Aldrich, cat no: CAS 50-78-2) was diluted in PBS. Ketorolac (Sigma-Aldrich, cat no: 1356665), Bortezomib (Selleckchem, cat no: S1013), gemcitabine (Sigma-Aldrich, cat no: G6423), Leptomycin-B (Sigma-Aldrich, cat no: L2913-2X) and KPT-185 (Selleckchem, cat no: S7125) were dissolved in DMSO. The concentration range of KPT-330 was 0.05-1.0 μM while CS was 1-3 mM were used for ex vivo treatment and incubation time ranged from 24 hours to 72 hours. For the PARP inhibitor assay, olaparib 10 μM (SelleckChem, cat no: AZD2281 Ku-0059436) was used.
(§3) The viability assessment for cell lines and primary patients samples were conducted with the Annexin V/PI method.

H1048 cells = test: Cell viability, Annexin V/PI assay; format: cell-based; settings: H1048 (Small-cell lung cancer); 48 hours; KPT-330 0.1-1.0 μM, CS 1-3 mM, single agent or combination
Experimental: as §1, §2, §3

KMS2 cells = test: Cell viability, Annexin V/PI assay; format: cell-based; settings: KMS2 (MM); 48 hours; KPT-330 0.1-1.0 μM, CS 1-3 mM, single agent or combination
Experimental: as §1, §2, §3

Mino cells = test: Cell viability, Annexin V/PI assay; format: cell-based; settings: Mino (MCL); 48 hours; KPT-330 0.1-1.0 μM, CS 1-3 mM, single agent or combination
Experimental: as §1, §2, §3

RPMI (MM cell line) = test: Cell viability, Annexin V/PI assay; format: cell-based; settings: 48 hours, KPT-330 0.1-1.0 μM, CS 1-3 mM, single agent or combination
Experimental: as §1, §2, §3

FuJi cells = test: Cell viability, Annexin V/PI assay; format: cell-based; settings: FuJi (Sarcoma); 48 hours; KPT-330 0.1-1.0 μM, CS 1-3 mM, single agent or combination
Experimental: as §1, §2, §3

SW872 cells = test: Cell viability, Annexin V/PI assay; format: cell-based; settings: SW872 (Sarcoma); 48 hours; KPT-330 0.1-1.0 μM, CS 1-3 mM, single agent or combination
Experimental: as §1, §2, §3

A549 cells = test: Cell viability, Annexin V/PI assay; format: cell-based; settings: A549 (Non-small cell lung cancer); 48 hours; KPT-330 0.1-1.0 μM, CS 1-3 mM, single agent or combination
Experimental: as §1, §2, §3

HCC827 cells = test: Cell viability, Annexin V/PI assay; format: cell-based; settings: HCC827 (Non-small cell lung cancer); 48 hours; KPT-330 0.1-1.0 μM, CS 1-3 mM, single agent or combination
Experimental: as §1, §2, §3

OPM2 cells = test: Cell viability, Annexin V/PI assay; format: cell-based; settings: OPM2 (MM); 48 hours; KPT-330 0.1-1.0 μM, CS 1-3 mM, single agent or combination
Experimental: as §1, §2, §3

U266 cells = test: Cell viability, Annexin V/PI assay; format: cell-based; settings: U266 (MM); 48 hours; KPT-330 0.1-1.0 μM, CS 1-3 mM, single agent or combination
Experimental: as §1, §2, §3

Xg1 cells = test: Cell viability, Annexin V/PI assay; format: cell-based; settings: Xg1 (MM); 48 hours; KPT-330 0.1-1.0 μM, CS 1-3 mM, single agent or combination
Experimental: as §1, §2, §3

CRL-1873 (RS4-11 cells) = test: Cell viability, Annexin V/PI assay; format: cell-based; settings: CRL-1873 (ALL); 48 hours; KPT-330 0.1-1.0 μM, CS 1-3 mM, single agent or combination
Experimental: as §1, §2, §3

OCI-Ly19 cells = test: Cell viability, Annexin V/PI assay; format: cell-based; settings: OCI-Ly19 (DLBCL); 48 hours; KPT-330 0.1-1.0 μM, CS 1-3 mM, single agent or combination
Experimental: as §1, §2, §3

SR-786 cells = test: Cell viability, Annexin V/PI assay; format: cell-based; settings: SR-786 (TCL); 48 hours; KPT-330 0.1-1.0 μM, CS 1-3 mM, single agent or combination
Experimental: as §1, §2, §3

H460 cells = test: Cell viability, Annexin V/PI assay; format: cell-based; settings: H460 (Non-small cell lung cancer); 48 hours; KPT-330 0.1-1.0 μM, CS 1-3 mM, single agent or combination
Experimental: as §1, §2, §3

SMILES | % viability normalized for respective controls [1] | % viability normalized for respective controls (OCI-Ly3 cells) | % viability normalized for respective controls (L3.6 cells) | % viability normalized for respective controls (Karpas-299 cells) | % viability normalized for respective controls (H1048 cells) | % viability normalized for respective controls (KMS2 cells) | % viability normalized for respective controls (Mino cells) | % viability normalized for respective controls (RPMI (MM cell line)) | % viability normalized for respective controls (FuJi cells) | % viability normalized for respective controls (SW872 cells) | % viability normalized for respective controls (A549 cells) | % viability normalized for respective controls (HCC827 cells) | % viability normalized for respective controls (OPM2 cells) | % viability normalized for respective controls (U266 cells) | % viability normalized for respective controls (Xg1 cells) | % viability normalized for respective controls (CRL-1873 (RS4-11 cells)) | % viability normalized for respective controls (OCI-Ly19 cells) | % viability normalized for respective controls (SR-786 cells) | % viability normalized for respective controls (H460 cells)
C[N+](C)(C)CCO.O=C([O-])c1ccccc1O [CS, choline salicylate] | 53% | 84% | 72% | 80% | 92% | 83% | 86% | 85% | 85% | 88% | 94% | 90% | 98% | 93% | 95% | 91.5% | 88% | 100% | 105%
O=C(/C=C\n1cnc(-c2cc(C(F)(F)F)cc(C(F)(F)F)c2)n1)NNc1cnccn1 [KPT-330, (Z)-3-[3-[3,5-bis (trifluoromethyl)phenyl]-1,2,4-triazol-1-yl]-N′-pyrazin-2-ylprop-2-enehydrazide] | 56% | 85% | 61% | 88% | 81% | 79% | 89% | 87.5% | 93% | 82% | 101% | 78% | 82% | 75% | 76% | 79% | 57% | 91% | 93%
